# Laboratory results reported in patent publication US6565830B1, “DTPA monoamides, pharmaceutical agents containing these compounds, their use and process for their production” (Schering Aktiengesellschaft, priority 1990, dated 2003).
# Columns and labels:
# [1] = cited from earlier work
# [2] = system: liver; assay: In vivo NMR diagnosis (MRI) after oral administration, rat; conditions: p.o. 0.5 mmol of Gd/kg
# Description: This finding agrees very well with the pharmacokinetic data.
# [3] = system: Brown-Pearce tumor; assay: In vivo NMR diagnosis (MRI) after intravenous administration, rat with Brown-Pearce tumor in the liver; conditions: i.v. 0.1 mmol of Gd/kg
# Description: A cell suspension of the Brown-Pearce tumor was injected in the liver in a test animal (rat, strain lew/mol, female, 155 g) two weeks before the test. In the method used, about 2 weeks were required until the tumor had reached the size of 0.5-1 cm^3 desired for the test.
# For the test, the animal was anesthetized (Rompun+Ketavet) and then a catheter was placed in the caudal vein for the administration of the contrast medium.
# The imaging took place in an MRI experimental device of the General Electric company (field strength 2 teslas). The first image was made without contrast media with a T1-weighted spin echo sequence (TR=400 msec, TE=20 msec, layer thickness 3 mm).
# [4] = target: human serum albumin (Homo sapiens, UniProt P02768); assay: Association with human serum albumin in aqueous solution; type: binding
# human serum albumin, sequence (P02768 25-609): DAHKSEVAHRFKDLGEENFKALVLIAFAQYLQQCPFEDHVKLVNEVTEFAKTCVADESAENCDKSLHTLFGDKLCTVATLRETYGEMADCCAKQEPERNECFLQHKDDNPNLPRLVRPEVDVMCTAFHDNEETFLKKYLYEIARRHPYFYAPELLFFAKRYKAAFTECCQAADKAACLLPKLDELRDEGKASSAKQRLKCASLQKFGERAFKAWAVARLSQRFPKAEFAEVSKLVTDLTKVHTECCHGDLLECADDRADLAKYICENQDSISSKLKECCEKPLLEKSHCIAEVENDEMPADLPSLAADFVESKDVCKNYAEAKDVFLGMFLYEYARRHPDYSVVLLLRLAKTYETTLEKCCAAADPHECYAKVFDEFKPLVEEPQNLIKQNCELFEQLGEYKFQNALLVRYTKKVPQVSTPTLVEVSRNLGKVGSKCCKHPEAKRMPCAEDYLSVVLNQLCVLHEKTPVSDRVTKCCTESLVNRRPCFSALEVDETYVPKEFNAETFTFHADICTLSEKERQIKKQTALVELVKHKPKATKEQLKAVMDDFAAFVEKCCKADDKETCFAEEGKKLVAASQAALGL
smiles,measurement,setting,value
"CNC[C@H](O)[C@@H](O)[C@H](O)[C@H](O)CO.CNC[C@H](O)[C@@H](O)[C@H](O)[C@H](O)CO.O=C([O-])CN(CCN(CC(=O)[O-])CC(=O)O)CCN(CC(=O)[O-])CC(=O)O.[Gd+3] [Magnevist, gadolinium(III) complex of diethylenetriaminepentaacetic acid]",distribution after intravenous injection,[1],spreads extracellularly
same,route of elimination after intravenous injection,[1],eliminated by glomerular secretion through the kidneys
"O=C(O)CCCCCCCCCCNC(=O)CN(CCN(CCN(CC(=O)O)CC(=O)O)CC(=O)O)CC(=O)O.[Gd] [Example 1b, Gadolinium complex of 3,6-bis(carboxymethyl)-9-(10-carboxydecylcarbamoylmethyl)-3,6,9-triazaundecanedioic acid]",resorption after oral administration,[2],resorbed in the small intestine after oral administration and is immediately taken up again for the most part by the liver
same,signal in the liver in MRI image,[2]; 45 minutes after administration (image 3),slight increase in the signal in the liver
same,enhancement in the liver in MRI image,[2]; 180 minutes after administration (image 4),marked enhancement
same,secretion in the stomach,[3],secreted in the stomach
same,distribution of contrast medium between liver and tumor,[3]; 60 minutes,"concentrated in the liver to a great extent, but, not in the tumor"
same,enhancement of the stomach in MRI image,[3]; 60 minutes (image no. 2),very strong enhancement
same,appearance of liver tumor in MRI image,[3]; 60 minutes after administration,considerably darker in comparison with the surrounding liver tissue
same,signal intensity of liver parenchyma in MRI image,"[3]; 60 minutes after administration, T1-weighted spin echo, 2 teslas",very bright
"CCCCCCC(CCCCCCCCCCC(=O)O)NC(=O)CN(CCN(CCN(CC(=O)O)CC(=O)O)CC(=O)O)CC(=O)O.[Gd] (centres unmarked) [Example 4b, Gadolinium complex of 3,6-bis(carboxymethyl)-9-(11-carboxy-1-n-hexyl-undecylcarbamoylmethyl)-3,6,9-triazaundecanedioic acid]",association with human serum albumin,[4],forms associates
